Data: patent US20140243243A1, “DEVICE AND METHOD FOR CELL-EXCLUSION PATTERNING” (Corning Incorporated, priority 2012, published 2014)

Tested on: cells growing in a cell-exclusion patterned cell culture
Assay: Cell-exclusion patterned cell culture in the presence and absence of a drug (cell proliferation and migration)
Assay type: cell-based
Settings: uncoated well bottoms; micrographs pretreatment (t=0 h), after 14 h and 40 h of treatment; FIG. 11
Procedure: Cell-exclusion patterning was carried out by a sequence of steps, as illustrated in FIG. 3. In Step A, complete medium was added to wells of a microtiter plate. The volume added was approximately 30 ul for 384-well plates or 75 ul for 96-well plates. In step B, a comb having guide pins and blocking pins was lowered into the microtiter plate and the blocking pins were locked into the desired wells and the guide pins into the corresponding guide holes. In step C, cells were introduced into the wells of the microtiter plate by adding a solution containing cells to the walls of the wells. The volume of the cell solution was approximately 20 ul for 384-well plates or 25-50 ul for 96-well plates. The cell density was 8000 cells per well and 30,000 cells per well for 384- and 96-well plates, respectively. In step D, the cells were allowed to settle and adhere to the well bottom inside a cell culture hood for about 45 min. The microplates were then placed inside a humidified incubator at 37° C. and 5% CO2 for 3-4 h to allow the cells to attach to the well bottom. In step E, the comb and the pins were removed from the wells. Drugs were then added, if necessary to carry out an assay.
Cell patterns were imaged by bright-field or fluorescent microscopy or by using Corning Epic® label-free high-resolution optical resonance detection system (available from Corning Incorporated, Corning, N.Y.). […]

For C=C1[C@@H](C)[C@H]2[C@H](Cc3ccccc3)NC(=O)[C@]23[C@H](OC(C)=O)/C=C/[C@@](C)(O)C(=O)[C@@H](C)C/C=C/[C@H]3[C@@H]1O [CytoD, Cytochalasin D], the “growth of cells into the cell exclusion area over time” value was “cells do not grow into the cell exclusion area over time”.
